{"source": "patent US8193238B2", "about": "“Inhibition of microtubule protrusion in cancer cells” (University of Maryland, Baltimore, priority 2006, dated 2012)", "type_in_all_cases": "cell-based, mouse", "key": {"EpH4 cells": {"test_system": "EpH4 cells", "test": "Protrusions in suspended cells treated with cytoskeletal inhibitors (EpH4)", "protocol": "In FIG. 2A, after 15 minutes of suspension, protrusions in EpH4 and MCF10A cells are quite small (Control, white arrows). […] In FIG. 2B, populations of live, suspended cells were scored blindly for two or more protrusions longer than the cell radius. Each bar represents the mean+S.D. for three experiments in which at least 100 single cells were counted.\nEpH4 cells were suspended in either DMEM (Control) or media containing 5 μM Latrunculin-A (LA), 1 μM Colchicine or the combination of both drugs for 30 minutes. Cells were then spun onto glass coverslips and fluorescently stained for α-tubulin (green) and polymerized actin (red). Protrusions that are difficult to see by phase contrast are easily discernible with immunostaining for α-tubulin (white arrows). Protrusions contain little polymerized actin, except at points of concentration, which are often at the end (arrowhead).\nEpH4 and B19 cells were suspended over 2% agarose coated plates to prevent attachment in either serum-free DMEM or media containing. Latrunculin-A (5 μM) to enhance protrusions. For co-staining of α-tubulin and actin, suspended cells were then centrifuged onto poly-L-lysine coated coverslips (280 g×5 min), fixed in 3.7% formaldehyde in PBS for 10 min, and permeablized with 0.1% Triton X-100 in PBS. Adhered cells were then stained for 1 hr at room temperature using FITC-conjugated anti-α-tubulin (1:200; Sigma), Alexa-594 phalloidin (1:100; Molecular Probes), and Hoescht 33342 (1:5000; Sigma).\nIn order to initially characterize the cytoskeletal mechanism underlying these protrusions, suspended cells were treated with inhibitors of actin and tubulin polymerization (FIG. 2). After 15 minutes of suspension, the protrusions in untreated EpH4 or MCF10A cells remain fairly short (FIG. 2, white arrows). These early protrusions can often be difficult to detect with phase-contrast microscopy, due to interfering light refraction from the plasma membrane. […] Protrusions were more easily visible with immunofluorescence than phase contrast microscopy (FIG. 3, white arrows). Although actin filament staining was generally low along the length of the protrusion, dense points of actin were often found at the end of protrusions (FIG. 3, arrowheads)."}, "EpH4-Bcl2 cells [1]": {"test_system": "EpH4-Bcl2 cells", "test": "Cell-cell attachment assay", "conditions": "EpH4-Bcl2 in 0.3% methylcellulose over agarose, 5 hours; listed as LA", "protocol": "(§1) In FIG. 6A, EpH4-Bcl2 cells were suspended over agarose and treated with inhibitors as above. Following treatment, cells were plated into 0.3% methylcellulose media over agarose and the rate of cell-cell attachment was followed by Hoescht DNA staining. […] Similar results were found in three independent experiments. In FIG. 6B, EpH4-Bcl2 cells suspended over agarose for one hour in DMEM or DMEM containing LA (5 μM), Colchicine (1 μM), or the combination. Reattachment of these cells to either uncoated tissue culture plates or those pre-coated with laminin was followed by XTT cell viability assay. Values represent mean+S.D. of raw XTT values of three separate experiments.\nB19 cells were seeded onto 10 cm dishes until 80% confluency. The media was aspirated and cells were incubated in fresh growth media containing Hoescht 33342 (1:5000) for 30 min at 37° C. to label all attached cells. The cells were washed twice in PBS, detached by trypsinization, and an equivalent number of cells were resuspended in serum-free media containing 0.3% methylcellulose with either 5 μM Latrunculin A, 100 μM Colchicine, 1 μg/ml vinblastine, or 5 μg/ml nocodazole and plated over 2% agarose-coated 24-well plates. The progression of cell-cell adhesion over time was visualized by the EpiChemi3 Imaging System (UVP, Inc.; Upland, Calif.) using an excitation wavelength of 365 nm and a blue band pass filter. Images were obtained with an attached Hamamatsu CCD camera (Hamamatsu Photonics, Hamamatsu City, Japan) and analyzed with UVP Labworks Image Acquisition and Analysis Software v. 4.6.\n(§2) To determine if these microtubule protrusions influence the ability of cells to form attachments, the cells were treated with inhibitors of actin or tubulin polymerization and assessed both cell-cell and cell-substratum attachment (FIG. 6). […] Induction of such nonspecific attachment activity in detached mammary epithelial cells could promote tumor cell dissemination, particularly when apoptotic resistance allows this response to continue for extended periods."}, "EpH4-Bcl2 cells [2]": {"test_system": "EpH4-Bcl2 cells", "test": "Cell-substratum attachment assay", "protocol": "as §1\nEquivalent numbers of B19 cells were suspended over 6-well plates coated in 2% agarose in serum-free media containing 5 μM Latrunculin-A (LA; BioMol, Plymouth Meeting, Pa.), 100 μM colchicine (Col; Sigma, St. Louis, Mo.), 5 μg/ml nocodazole (Noc), or 1 μg/ml vinblastine (VinB; Sigma) for a duration of 1 hr at 37° C. Cells were collected by centrifugation (1000 rpm×5 min) and drug containing media was aspirated. Cells were resuspended in EpH4 serum-containing growth media and aliquoted out into 24 wells (8 timepoints×3 replicates) of a 96-well clear bottom black plate. After plating, cells were allowed to attach for duration of 15 min, 45 min, 1.5 hr, 2 hr, 3 hr, 4 hr, 5 hr, and 24 hr at which point the media was aspirated from the replicate wells, washed twice in PBS, and fresh growth media was replaced at each timepoint. After 24 hr, all wells were aspirated and cells were incubated in growth media containing Hoescht 33342 (1:5000) for 30 min at 37° C. to label all attached cells. Fluorescence was measured using a Biotek Synergy HT Multi-Detection Microplate Reader (Winooski, Vt.) at excitation wavelength 360 nm and an emission filter of 460 nm followed by subsequent analysis using the KC4 Data Analysis software. The percentage of cell attachment for each treatment exposure was calculated as the RFU at each timepoint divided by the RFU at 24 h (maximum attachment). The standard deviations of triplicates at each timepoint are shown.\nas §2"}}, "note": "“Also recorded” adds a separate entry of the source."}
{"compound": "C/C1=C/C(=O)O[C@@H]2C[C@@H](CC[C@H](C)/C=C\\C=C\\CC1)O[C@@](O)([C@@H]1CSC(=O)N1)C2", "note": "[Latrunculin-A]", "values": [{"measurement": "protrusions", "setting": "EpH4 cells; EpH4, 15 minutes of suspension, Latrunculin-A 5 μM, Colchicine 1 μM, listed as latrunculin-A", "result": "significantly enhanced both the number and length of protrusions"}, {"measurement": "microtubule protrusions by immunofluorescence (α-tubulin)", "setting": "EpH4 cells; EpH4 suspended 30 minutes, LA 5 μM, listed as LA", "result": "increase the number and length of microtubule protrusions; also recorded: strongly enhances the formation of microtubule protrusions"}, {"measurement": "cell-cell attachment (clustering)", "setting": "EpH4-Bcl2 cells [1]", "result": "did speed the rate at which cells bound to each other; also recorded: cluster similarly or even more tightly compared to control cells"}, {"measurement": "attachment of cells to tissue culture surfaces", "setting": "EpH4-Bcl2 cells [2]; EpH4-Bcl2 (B19), 1 hr in suspension with inhibitor, then replated", "result": "did not significantly affect attachment"}, {"measurement": "cell-surface attachment to uncoated or laminin-coated plates (XTT)", "setting": "EpH4-Bcl2 cells [2]; EpH4-Bcl2 suspended one hour, LA 5 μM, Colchicine 1 μM", "result": "does not affect cell-surface attachment"}]}
